# Source: patent US20060263346A1, “Combined pharmaceutical preparations for the treatment of cancer, containing glutaminase and antineoplastic anthracyclines or platinum compounds” (priority 2003, published 2006)
# What was measured:
# Format in all cases: cell-based
# [1] = tested on: breast tumor (MCF7) cells; assay: Sulforhodamine in vitro cell growth test, breast tumor cells MCF7; details: 48 h
# Procedure: (§1) Cell lines from tumors of the breast (MCF7), lung (NCI-H460, A549), colon (SW-60, HT29) and CNS (SF-539) were used for the test. The tumor cells were cultured in RPMI 1640 medium containing 7.5% foetal calf serum at 37° C. and 5% CO2. After the cells had grown for 24 hours, they were incubated with the substances to be tested for 48 hours.
# (§2) The antineoplastic agents used for the experiments were obtained from Sigma in cell culture quality.
# (§3) A Pseudomonas 7A glutaminase-asparaginase modified with polyethylene glycol (DE 41 40 003 A1, WO 94/13817 A1 and WO 02/31498 A2) was used as the glutaminase.
# (§4) After a 48 hour incubation period cell growth was determined by means of the absorption of the bound sulforhodamine dye at 575 nm. The percentage growth was calculated as follows: [formula] in which PW denotes percentage growth, C denotes untreated control cells, T denotes the amount of treated cells and the indices 0 and t denote the amount of cells at time 0 and after 48 hours.
# lung tumor (A549) cells = assay: Sulforhodamine in vitro cell growth test, lung tumor cells A549; details: 48 h
# Procedure: as §1, §2, §3, §4
# colon tumor (HT29) cells = assay: Sulforhodamine in vitro cell growth test, colon tumor cells HT29; details: 2 μg/ml cis-platinum alone, 48 h
# Procedure: as §1, §2, §3, §4
# [2] = tested on: lung tumor (NCI-H23) cells; assay: Sulforhodamine in vitro cell growth test, lung tumor cells NCI-H23; details: 48 h
# Procedure: as §1, §2, §3, §4
smiles,measurement,setting,value
"N.N.[Cl][Pt][Cl] [Cis-platinum, cis-platinum]",tumor cell growth,[1]; 2 μg/ml cis-platinum alone,86%
same,tumor cell growth,lung tumor (A549) cells; 2 μg/ml cis-platinum alone,41%
same,tumor cell growth,colon tumor (HT29) cells,65%
"COc1cc([C@@H]2c3cc4c(cc3[C@@H](O[C@@H]3O[C@@H]5CO[C@@H](C)O[C@H]5[C@H](O)[C@H]3O)[C@H]3COC(=O)[C@H]23)OCO4)cc(OC)c1O [Etoposide, etoposide]",growth compared to the control,[1]; 2.3 μg/ml etoposide alone,about 40%
same,growth compared to the control,lung tumor (A549) cells; 2.3 μg/ml etoposide alone,about 40%
same,growth compared to the control,[2]; 2.3 μg/ml etoposide alone,about 40%
"N[C@@H](Cc1ccc(N(CCCl)CCCl)cc1)C(=O)O [Melphalan, melphalan]",tumor growth,[2]; 68 μg/ml melphalan alone,34%
"CO[C@@]12[C@H](COC(N)=O)C3=C(C(=O)C(C)=C(N)C3=O)N1C[C@@H]1N[C@@H]12 [Mitomycin, mitomycin]",growth compared to the control,[1]; 0.026 μg/ml mitomycin alone,66%
